Experimental data: patent US7749496B2, “Neuronal regeneration” (Case Western Reserve University, priority 2001, dated 2010)

How the values were obtained:
Assay type in all cases: cell-based
E9 chick DRG = assay: Three-dimensional layered agarose gel, neurite crossing of gel interfaces; conditions: for percentage of DRG neurites that cross the interface between 2 layers: interface of 1% agarose and 2% agarose modified with chondroitin sulfate, compared to non-GAG agarose interface, FIG. 3
Excerpt: This three-dimensional system allows observation of neuronal cell behavior at gel interfaces. In this example, layer 1 is a control interface composed of 1% agarose, layer 2 contains the neuronal explant, in this case an explant of dorsal root ganglia (DRG) in 1% agarose, and layer 3 is 2% agarose containing chondroitin sulfate-B. The layer 1/layer 2 interface provides a control agarose/agarose interface, while the layer 2/layer 3 interface provides an agarose/CS-GAG rich agarose interface. The ability of neurites to cross the interface between layer 2/layer 3 can be measured.
Agarose gels were made by dissolving SeaPrep agarose (FMC Corp) in pH 7.4 PBS. Agarose solutions were sterilized by p assing through a 0.45 u m filter, gelled and stored at 4° C. Prior to use, the gels were degelled at 65° C., cooled to 37° C., and gelled.
For construction of three dimensional system, agarose gels were layered in a rectangular culture dish. 1% liquid agarose was poured into the dish, and chilled to allow layer 1 to gel. After layer 1 had gelled, liquid agarose containing several E9 chick DRG were poured onto layer 1, and chilled to form layer 2. After layer 2 had gelled, 2% liquid agarose containing chondroitin sulfate-B was poured onto layer 2 and chilled to form layer 3.
To maintain the cells in this culture system, culture medium consisting of DMEM supplemented with 10% fetal bovine serum, 1% penicillin-streptomycin, and 50 ng/mL nerve growth factor was added to the top of the gel.
The ability of neuronal cells to extend processes across the interfaces was quantified by determining the percentage of neurites that successfully crossed the interface using light microscopy.

NG108 cells = assay: Two dimensional coverslip with alternating stripes of chondroitin sulfate, crossing of short axis; conditions: protein delivered with Chariot protein transduction system; unmodified cells less than 10%; FIG. 5A
Excerpt: We developed a two-dimensional model to observe the effects of substrate-bound GAGs or CSPGs on neurite extension. Briefly, the surfaces of glass coverslips were modified using 3-aminopropyltriethoxysilane, which binds amines to the surface. Through a two-step covalent coupling procedure, chondroitin sulfate C(CS-C) was crosslinked to the amines on the surface of the coverslip. First, CS-C was linked to EDAC, a zero-length crosslinker, that reacts with amine groups. With the aid of the Bonhoeffer matrix the CS-C-EDAC solution was passed into the microchannels incubated at room temperature for 30 minutes and removed. This process was repeated three additional times with fresh CS-C-EDAC solution. The CS-C covalently couple to the amines on the modified coverslip via the EDAC.
The coverslips were sonicated for 5 minutes to remove any CS-C that was not covalently bound to the coverslip. The coverslips were sterilized in 70% ethanol, and 15,000 cells were seeded on top of the micropatterned area and incubated at 37° C., 5% CO2. The behavior of the seeded cells can now be examined in the presence or absence of agents which either influence the cells themselves (e.g., Class I activators, Class II inhibitors, etc.) or agents which alter the CS-C. […]

NG108-15 cells = assay: Neurite crossing of laminin/aggrecan (CSPG) boundary after protein transduction; conditions: for neurite extension across laminin/CSPG boundary: vs controls
Excerpt: We developed a second model to observe the effects of substrate-bound GAGs or CSPGs on neurite extension. Briefly, alternating lanes of the CSPG aggrecan and laminin were created on 60 mm diameter tissue culture dishes using a modified version of the Bonhoeffer method. Thus, neurite extension of cells across laminin/CSPG boundaries could be observed in these coated tissue culture dishes. Such laminin/CSPG coated dishes were used for the experiments summarized in the following examples and in FIGS. 7-10.
NG108-15 cells (available from ATCC, Manassas, Va.) were removed from culture flasks and resuspended in Neurobasal-A media (Invitrogen, Carlsbad, Calif.) supplemented with N-2, L-glutamine, and 1% penicillin/streptomycin. 2×10^4 NG108-15 cells were added to a laminin/CSPG coated dish as described in Example 8. After approximately 4 hours, the cells formed lanes adhering to the laminin lanes. The ability of the cells to migrate and/or extend processes across the laminin/CSPG boundary was then assessed following transduction of the cells with control proteins, with various Class I activator proteins, or with a Class 2 inhibitor protein.
Cells were transduced using the CHARIOT protein transduction system with any one of the following: GST control alone, activated Cdc42-GST, dominant negative Cdc42-GST, activated Rac1-GST, dominant negative Rac1-GST, activated RhoA-GST, or the RhoA inhibitor C3 transferase (Cytoskeleton, Denver, Colo.). The activated and dominant negative variants used for these experiments were as following: activated Cdc42=Q61L Cdc42, dominant negative Cdc42=T17N Cdc42, activated Rac1=Q61L Rac1, dominant negative Rac1=T17N […], activated RhoA=Q63 L RhoA. Following protein transduction, cells were placed in humidified incubators at 37° C., and 5% CO2 and were […] after 48 hours.

[1] = Chariot transduction, imaged after 48 hours, vs untransduced or GST alone, FIG. 7

chondroitin-sulfate B
percentage of DRG neurites that cross the interface between 2 layers (E9 chick DRG): statistically significant decrease | percentage of DRG neurites that cross the interface between 2 layers (E9 chick DRG; listed as CS-GAG): significantly inhibited | extension of neuronal processes at the layer 2/layer 3 interface (E9 chick DRG; layer 3 is 2% agarose modified with chondroitin sulfate B, FIG. 2C): inhibited

constitutively active Cdc42: Q61L mutation of human Cdc42 (SEQ ID NO: 2), constitutively active Rho family GTPase protein, delivered by Chariot protein transduction
percentage of NG108 cells that cross the short axis of chondroitin sulfate GAG coverslip (NG108 cells): approximately 50% | percentage of neurites that cross a laminin/aggrecan boundary (NG108-15 cells; 4 μg/mL, Chariot transduction, vs untransduced cells, FIG. 8): statistically significant increase | dose dependence of neurite extension across laminin/CSPG boundary (NG108-15 cells; 1, 2, 3, 4 μg/mL, Chariot transduction, FIG. 8): dose dependent increase | percentage of neurites that cross a laminin/aggrecan boundary (NG108-15 cells; [1]): statistically significant increase

C3 transferase
neurite extension across laminin/CSPG boundary (NG108-15 cells; 2 μg/mL, FIG. 10): statistically significant | neurite extension across laminin/CSPG boundary (NG108-15 cells; 4 μg/mL, FIG. 10): statistically significant | percentage of neurites that cross a laminin/aggrecan boundary (NG108-15 cells; [1]): statistically significant increase | dose dependence of neurite crossing of laminin/aggrecan boundary (NG108-15 cells; various concentrations, in the presence of Chariot, FIG. 10): statistically significant and dose dependent increase

activated RhoA: Q63L RhoA constitutively active Rho family GTPase variant, GST protein
percentage of neurites that cross a laminin/aggrecan boundary (NG108-15 cells; [1]): did not significantly promote

dominant negative Cdc42: T17N Cdc42 dominant negative Rho family GTPase variant, GST protein
percentage of neurites that cross a laminin/aggrecan boundary (NG108-15 cells; [1]): did not significantly promote
